# Source: ChEMBL document CHEMBL3885861, “Open TG-GATES”
# Organism: Rattus norvegicus
# Assay: Open TG-GATES - Regimen: Daily Repeat
# Type: toxicity, organism-based, Sprague-Dawley
# Design: regimen Daily Repeat, gender Male, age 6 weeks
# Settings: in vivo, iv, 0 mg/kg, route intravenous injection, dose level Control; for KIDNEY_L / KIDNEY_R / KIDNEY_TOTAL: tissue Kidney
# [1] = 72 h, tissue Plasma, time 3 day
# [2] = […], tissue Plasma, time 14 day
# [3] = […], tissue Plasma, time 28 day
sequence,measurement,setting,value
GENTAMICIN,TERMINAL_BW,"72 h, time 3 day",231.1 g
same,APTT,"72 h, tissue Blood, time 3 day",23.2 s
same,Bas,"72 h, tissue Blood, time 3 day",0%
same,Eos,"72 h, tissue Blood, time 3 day",1%
same,Fbg,"72 h, tissue Blood, time 3 day",286.6 mg/dL
same,Ht,"72 h, tissue Blood, time 3 day",37.6%
same,Lym,"72 h, tissue Blood, time 3 day",72.8%
same,MCH,"72 h, tissue Blood, time 3 day",21.1 pg
same,MCHC,"72 h, tissue Blood, time 3 day",34.9%
same,MCV,"72 h, tissue Blood, time 3 day",60.6 fL
same,Mono,"72 h, tissue Blood, time 3 day",3.2%
same,Neu,"72 h, tissue Blood, time 3 day",21.6%
same,PT,"72 h, tissue Blood, time 3 day",16.9 s
same,Plat,"72 h, tissue Blood, time 3 day",119.1 x10_4/uL
same,RBC,"72 h, tissue Blood, time 3 day",621 x10_4/ul
same,Ret,"72 h, tissue Blood, time 3 day",5.8%
same,WBC,"72 h, tissue Blood, time 3 day",105.4 x10_2/uL
same,KIDNEY_L,"72 h, time 3 day",1.1 g
same,KIDNEY_R,"72 h, time 3 day",1 g
same,KIDNEY_TOTAL,"72 h, time 3 day",2.1 g
same,ALP,[1],1838 IU/L
same,ALT,[1],41.8 IU/L
same,AST,[1],70.2 IU/L
same,BUN,[1],16.2 mg/dL
same,CRE,[1],0.2 mg/dL
same,DBIL,[1],0 mg/dL
same,IP,[1],6.9 mg/dL
same,K,[1],4.5 meq/L
same,LDH,[1],157.2 IU/L
same,Na,[1],139.6 meq/L
same,PL,[1],147.8 mg/dL
same,RALB,[1],3 g/dL
same,TBIL,[1],0.006 mg/dL
same,TC,[1],72.8 mg/dL
same,TG,[1],107.6 mg/dL
same,TP,[1],5.5 g/dL
same,gamma-GTP,[1],1.6 IU/L
same,TERMINAL_BW,"[…], time 7 day",261.2 g
same,TERMINAL_BW,"[…], time 14 day",307.6 g
same,TERMINAL_BW,"[…], time 28 day",392.7 g
same,APTT,"[…], tissue Blood, time 7 day",22.1 s
same,Bas,"[…], tissue Blood, time 7 day",0%
same,Eos,"[…], tissue Blood, time 7 day",0.8%
same,Fbg,"[…], tissue Blood, time 7 day",273.2 mg/dL
same,Ht,"[…], tissue Blood, time 7 day",37.1%
same,Lym,"[…], tissue Blood, time 7 day",80%
same,MCH,"[…], tissue Blood, time 7 day",20.6 pg
same,MCV,"[…], tissue Blood, time 7 day",58.5 fL
same,Mono,"[…], tissue Blood, time 7 day",3%
same,Neu,"[…], tissue Blood, time 7 day",15.5%
same,PT,"[…], tissue Blood, time 7 day",16 s
same,Plat,"[…], tissue Blood, time 7 day",118.1 x10_4/uL
same,RBC,"[…], tissue Blood, time 7 day",636.2 x10_4/ul
same,Ret,"[…], tissue Blood, time 7 day",4.1%
same,WBC,"[…], tissue Blood, time 7 day",124.9 x10_2/uL
same,APTT,"[…], tissue Blood, time 14 day",23 s
same,Bas,"[…], tissue Blood, time 14 day",0%
same,Eos,"[…], tissue Blood, time 14 day",0.8%
same,Fbg,"[…], tissue Blood, time 14 day",267.8 mg/dL
same,Ht,"[…], tissue Blood, time 14 day",40.2%
same,Lym,"[…], tissue Blood, time 14 day",78%
same,MCH,"[…], tissue Blood, time 14 day",21 pg
same,MCHC,"[…], tissue Blood, time 14 day",35.7%
same,MCV,"[…], tissue Blood, time 14 day",58.8 fL
same,Mono,"[…], tissue Blood, time 14 day",2.6%
same,Neu,"[…], tissue Blood, time 14 day",17.6%
same,PT,"[…], tissue Blood, time 14 day",16.2 s
same,Plat,"[…], tissue Blood, time 14 day",123.5 x10_4/uL
same,RBC,"[…], tissue Blood, time 14 day",684.8 x10_4/ul
same,Ret,"[…], tissue Blood, time 14 day",4%
same,WBC,"[…], tissue Blood, time 14 day",103.9 x10_2/uL
same,APTT,"[…], tissue Blood, time 28 day",24.6 s
same,Bas,"[…], tissue Blood, time 28 day",0%
same,Eos,"[…], tissue Blood, time 28 day",1.2%
same,Fbg,"[…], tissue Blood, time 28 day",290.2 mg/dL
same,Hb,"[…], tissue Blood, time 28 day",15.4 g/dL
same,Ht,"[…], tissue Blood, time 28 day",43.3%
same,Lym,"[…], tissue Blood, time 28 day",83%
same,MCHC,"[…], tissue Blood, time 28 day",35.5%
same,MCV,"[…], tissue Blood, time 28 day",57.6 fL
same,Mono,"[…], tissue Blood, time 28 day",2%
same,Plat,"[…], tissue Blood, time 28 day",102.2 x10_4/uL
same,RBC,"[…], tissue Blood, time 28 day",752 x10_4/ul
same,Ret,"[…], tissue Blood, time 28 day",2.3%
same,WBC,"[…], tissue Blood, time 28 day",107.5 x10_2/uL
same,KIDNEY_L,"[…], time 7 day",1.1 g
same,KIDNEY_R,"[…], time 7 day",1.1 g
same,KIDNEY_TOTAL,"[…], time 7 day",2.2 g
same,KIDNEY_L,"[…], time 14 day",1.2 g
same,KIDNEY_R,"[…], time 14 day",1.2 g
same,KIDNEY_TOTAL,"[…], time 14 day",2.4 g
same,KIDNEY_L,"[…], time 28 day",1.4 g
same,KIDNEY_R,"[…], time 28 day",1.3 g
same,KIDNEY_TOTAL,"[…], time 28 day",2.7 g
same,LIVER,"[…], tissue Liver, time 28 day",15.2 g
same,ALP,"[…], tissue Plasma, time 7 day",1702.5 IU/L
same,ALT,"[…], tissue Plasma, time 7 day",40.5 IU/L
same,AST,"[…], tissue Plasma, time 7 day",72.2 IU/L
same,BUN,"[…], tissue Plasma, time 7 day",17 mg/dL
same,CRE,"[…], tissue Plasma, time 7 day",0.2 mg/dL
same,DBIL,"[…], tissue Plasma, time 7 day",0 mg/dL
same,GLC,"[…], tissue Plasma, time 7 day",214 mg/dL
same,IP,"[…], tissue Plasma, time 7 day",6.8 mg/dL
same,K,"[…], tissue Plasma, time 7 day",4.4 meq/L
same,LDH,"[…], tissue Plasma, time 7 day",207.2 IU/L
same,PL,"[…], tissue Plasma, time 7 day",135.2 mg/dL
same,RALB,"[…], tissue Plasma, time 7 day",2.9 g/dL
same,TBIL,"[…], tissue Plasma, time 7 day",0.005 mg/dL
same,TC,"[…], tissue Plasma, time 7 day",68.5 mg/dL
same,TG,"[…], tissue Plasma, time 7 day",94.5 mg/dL
same,TP,"[…], tissue Plasma, time 7 day",5.4 g/dL
same,gamma-GTP,"[…], tissue Plasma, time 7 day",1.5 IU/L
same,ALP,[2],1249.2 IU/L
same,ALT,[2],33.4 IU/L
same,AST,[2],61.6 IU/L
same,CRE,[2],0.2 mg/dL
same,DBIL,[2],0 mg/dL
same,GLC,[2],198.6 mg/dL
same,IP,[2],7 mg/dL
same,K,[2],4.7 meq/L
same,PL,[2],140.8 mg/dL
same,RALB,[2],3 g/dL
same,TBIL,[2],0.002 mg/dL
same,TC,[2],63.2 mg/dL
same,TG,[2],154 mg/dL
same,TP,[2],5.6 g/dL
same,gamma-GTP,[2],2 IU/L
same,ALP,[3],976 IU/L
same,ALT,[3],34.8 IU/L
same,AST,[3],58.8 IU/L
same,BUN,[3],18.2 mg/dL
same,CRE,[3],0.2 mg/dL
same,DBIL,[3],0 mg/dL
same,GLC,[3],190.8 mg/dL
same,IP,[3],6.5 mg/dL
same,K,[3],4.1 meq/L
same,LDH,[3],115.4 IU/L
same,PL,[3],135.6 mg/dL
same,RALB,[3],3 g/dL
same,TBIL,[3],0.004 mg/dL
